Test results from ChEMBL document CHEMBL1156406, “New Xenia diterpenoids from the Indonesian soft coral Xenia sp” (J Nat Prod, 2002).

What was measured:
Assay type in all cases: functional, cell-based
P388 = test: Cytotoxicity against mouse P388 cells
A549 = test: Cytotoxicity against human A549 cells
HT-29 = test: Cytotoxicity against human HT-29 cells
SK-MEL-28 = test: Cytotoxicity against human SK-MEL-28 cells

Measured: IC50

C=C1C[C@@H](O)/C=C(\C)CC[C@@H]2/C(=C/C=C/C(C)(C)O)C(=O)OC[C@@H]12 [ISOXENIOLIDE A]
> 1 µg/mL: P388 | A549 | HT-29 | SK-MEL-28

C=C1CC[C@@H]2/C(=C/C=C/C(C)(C)O)C(=O)OC[C@H]2C(=C)CC[C@@H]1O
> 1 µg/mL: P388 | A549 | HT-29 | SK-MEL-28

C=C1C[C@@H](O)C2OC2(C)CC[C@@H]2/C(=C/C=C/C(C)(C)O)C(=O)OC[C@@H]12 (stereo partly specified)
> 1 µg/mL: P388 | A549 | HT-29 | SK-MEL-28

C=C1CC[C@@H]2/C(=C/C=C/C(C)(C)O)C(=O)OC[C@H]2C(=C)C[C@@H](O)[C@@H]1O
> 1 µg/mL: P388 | A549 | HT-29 | SK-MEL-28
